Here are results for 3 compounds from patent US20260008762A1, “CANNABINOID ACIDS CRYSTALLINE FORMS, METHODS OF PRODUCING, AND USES THEREOF” (priority 2022, published 2026).

Data set [1] is described as follows: Thermogravimetric analysis (TGA) of crystalline form. Type of data set: physicochemical. Particulars: crystalline single component form, dry nitrogen flow. On the procedure: Thermal gravimetric analysis (TGA) was carried out using a TA instruments 2910 under dry nitrogen flow (30 mL/min for both the furnace and the balance). For a typical experiment, 5-10 mg of solid material was placed into the pan and was allowed to equilibrate at room temperature under nitrogen for approximately 5 minutes prior to the start of each experiment to ensure a stable baseline. A heating rate of 1° C./min or 5° C./min was utilized.

Data set [2] has as its target SARS-CoV-2 spike protein S1 C-terminal domain (Severe acute respiratory syndrome coronavirus 2, UniProt P0DTC2). The following applies: can inhibit the virus' ability to enter new host cells; cited from earlier work.
The conditions of data set [3]: compared with THCa under similar conditions; cited from earlier work.

In the case of `C=C(C)[C@@H]1CCC(C)=C[C@H]1c1c(O)cc(CCCCC)c(C(=O)O)c1O` [CBDa, cannabidiolic acid], the TGA degradation onset result in data set [1] is “about 150 °C”. The “binding to SARS-CoV-2 spike protein S1 C-terminal domain” value in data set [2] is “found to bind to the SARS-CoV-2 spike protein S1 C-terminal domain”. For the same compound, in data set [3], the rate of decarboxylation result was “decarboxylates at a faster rate than THCa”.

Consider `CCCCCc1cc(O)c(C/C=C(\C)CCC=C(C)C)c(O)c1C(=O)O` [CBGa, cannabigerolic acid], for which the TGA degradation onset entry in data set [1] is “about 115 °C”. Besides, the “binding to SARS-CoV-2 spike protein S1 C-terminal domain” value in data set [2] is “found to bind to the SARS-CoV-2 spike protein S1 C-terminal domain”.

Consider `CCCCCc1cc2c(c(O)c1C(=O)O)[C@@H]1C=C(C)CC[C@H]1C(C)(C)O2` [THCa, tetrahydrocannabinolic acid], for which, in data set [1], the TGA degradation onset result is “about 125 °C”.
